The values that follow come from paper PMC4032265 (PLoS ONE, 2014).

Read-outs that look alike come from different tables or passages of the source.

In experiment [1] the target is T1, hA1AR (Homo sapiens, UniProt P30542).
T1 sequence (P30542 1-326): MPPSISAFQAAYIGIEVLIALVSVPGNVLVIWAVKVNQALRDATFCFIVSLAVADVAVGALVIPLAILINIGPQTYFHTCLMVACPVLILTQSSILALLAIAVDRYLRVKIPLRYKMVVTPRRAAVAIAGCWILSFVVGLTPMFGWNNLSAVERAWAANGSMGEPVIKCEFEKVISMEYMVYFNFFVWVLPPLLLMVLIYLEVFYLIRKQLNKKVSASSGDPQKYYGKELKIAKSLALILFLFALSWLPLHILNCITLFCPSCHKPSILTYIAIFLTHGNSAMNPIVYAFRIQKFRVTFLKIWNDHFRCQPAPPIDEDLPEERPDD
The conditions noted are these: ref 1-4 of Table S1 (Tosh et al. 2009, 2012); cited from earlier work.

The target of experiment [2] is 5HT2A serotonergic receptor (Homo sapiens, UniProt P28223). The experiment in a line: PDSP radioligand binding, 5HT2A. The conditions noted are these: read-out: % inhibition at 10 µM.
Experiment [3] deals with D1 dopaminergic receptor (Homo sapiens, UniProt P21728). In words: PDSP radioligand binding, D1. The conditions noted are these: read-out: % inhibition at 10 µM.
In experiment [4] the target is T2, hA2AAR (Homo sapiens, UniProt P29274). Details: method as in earlier work. Conditions: ref 1-4 of Table S1 (Tosh et al. 2009, 2012); cited from earlier work.
Experiment [5] deals with µ opioid receptor (Homo sapiens, UniProt P35372). In words: PDSP radioligand binding, µ opioid. The conditions noted are these: read-out: % inhibition at 10 µM.
The target in experiment [6] is T3, M5 muscarinic acetylcholine receptor (Homo sapiens, UniProt P08912).
T3 sequence (P08912 1-532): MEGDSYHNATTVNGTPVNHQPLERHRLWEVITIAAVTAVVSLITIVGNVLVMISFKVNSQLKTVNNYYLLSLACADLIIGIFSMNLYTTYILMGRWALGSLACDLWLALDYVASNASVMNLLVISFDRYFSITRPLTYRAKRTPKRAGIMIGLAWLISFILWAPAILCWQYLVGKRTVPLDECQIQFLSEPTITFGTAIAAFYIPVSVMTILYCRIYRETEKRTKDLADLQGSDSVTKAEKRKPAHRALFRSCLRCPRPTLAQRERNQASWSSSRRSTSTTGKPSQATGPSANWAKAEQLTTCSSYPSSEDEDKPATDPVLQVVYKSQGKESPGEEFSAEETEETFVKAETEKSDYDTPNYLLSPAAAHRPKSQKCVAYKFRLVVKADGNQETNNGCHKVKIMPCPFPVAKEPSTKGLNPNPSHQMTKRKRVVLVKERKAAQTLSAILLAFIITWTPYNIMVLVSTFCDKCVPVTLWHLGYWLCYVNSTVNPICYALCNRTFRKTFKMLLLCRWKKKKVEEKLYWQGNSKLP
In words: PDSP radioligand binding, M5. The conditions noted are these: read-out: % inhibition at 10 µM.

The target in experiment [7] is β2 adrenergic receptor (Homo sapiens, UniProt P07550). In words: PDSP radioligand binding, β2. The conditions noted are these: read-out: % inhibition at 10 µM.
Experiment [8] relates to GABAA receptor. The experiment in a line: PDSP radioligand binding, GABAA. Conditions: single concentration 10 µM.
Experiment [9] addresses H2 histaminergic receptor (Homo sapiens, UniProt P25021). In words: PDSP radioligand binding, H2. The conditions noted are these: read-out: % inhibition at 10 µM.
The target of experiment [10] is T2, hA2AAR. In words: Radioligand binding at hA2AAR. The conditions noted are these: compounds 8 and 9, measured for this study.
The target in experiment [11] is hA3AR (Homo sapiens, UniProt P0DMS8). In words: Radioligand binding at hA3AR.
In experiment [12] the target is 5HT2C receptor (Homo sapiens, UniProt P28335). In words: 5HT2C functional assay, antagonist mode (inhibition of agonist activity). Type of experiment: cell-based. The conditions noted are these: 10 µM.
The target in experiment [13] is T4, α2C adrenergic receptor (Homo sapiens, UniProt P18825).
T4 sequence (P18825 1-462): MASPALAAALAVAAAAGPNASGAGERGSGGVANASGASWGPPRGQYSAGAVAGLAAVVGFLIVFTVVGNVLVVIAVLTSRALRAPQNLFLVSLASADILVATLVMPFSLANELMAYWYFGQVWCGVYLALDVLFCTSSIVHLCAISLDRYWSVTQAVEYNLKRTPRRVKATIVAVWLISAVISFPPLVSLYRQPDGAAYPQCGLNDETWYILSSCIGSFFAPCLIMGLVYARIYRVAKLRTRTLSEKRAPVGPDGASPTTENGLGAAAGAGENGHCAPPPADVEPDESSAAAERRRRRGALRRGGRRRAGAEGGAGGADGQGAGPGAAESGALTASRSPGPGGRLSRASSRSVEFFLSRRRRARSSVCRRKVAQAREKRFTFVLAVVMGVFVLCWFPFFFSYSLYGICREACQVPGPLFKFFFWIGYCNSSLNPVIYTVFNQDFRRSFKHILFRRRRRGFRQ
In words: α2C adrenergic receptor functional assay (antagonist). Type of experiment: cell-based.

The target of experiment [14] is T1, hA1AR. The experiment in a line: Radioligand binding at hA1AR. The conditions noted are these: compounds 8 and 9, measured for this study.
Experiment [15] concerns the target 5HT2B receptor (Homo sapiens, UniProt P41595). In words: 5HT2B functional assay, antagonist mode (inhibition of agonist activity). The experiment is classed as cell-based. Conditions: for % inhibition as antagonist at 5HT2B: 10 µM; for IC50: antagonist mode.
Experiment [16] deals with T5, KXα4β2 receptor 2 (Rattus norvegicus, UniProt P09483+P12390).
T5 construct: expressed in transfected cells
The experiment in a line: [3H]epibatidine binding in cells expressing KXα4β2 receptor 2.

For experiment [17], the target named is T6, KXα3β4 receptor 2 (Rattus norvegicus, UniProt P04757+P12392).
T6 construct: expressed in transfected cells; host or cells: KXα3β4 receptor 2 (KXα3β4R2) cells
The experiment in a line: 86Rb+ efflux, nicotinic acetylcholine receptor antagonist activity, KXα3β4 receptor 2 cells. Type of experiment: cell-based. Conditions: cells expressing KXα3β4 receptor 2.

In experiment [18] the target is T7, YXα3β4H1 receptor (Homo sapiens, UniProt P30926+P32297).
T7 construct: expressed in transfected cells
In words: 86Rb+ efflux, nicotinic acetylcholine receptor antagonist activity, YXα3β4H1 cells. The experiment is classed as cell-based. The conditions noted are these: cells expressing YXα3β4H1 receptor.

Where [19] appears, read: read-out: IC50 at 5HT2B receptors (Figure S2).

Regarding `CNC(=O)[C@@]12C[C@@H]1[C@@H](n1cnc3c(NC)nc(C#Cc4ccc(F)c(F)c4)nc31)[C@H](O)[C@@H]2O` [Compound 5], the hA1AR % inhibition in experiment [1] was less than 10%. Further, the inhibition (usually the percentage by which the read-out fell short of the control) at 10 µM in experiment [2] came out at 11%; in experiment [3] (single concentration 10 µM), 0%; in experiment [5] (single concentration 10 µM), 5%; in experiment [6] (single concentration 10 µM), 4%; in [7] (single concentration 10 µM), 2%. Further, the hA2AAR % inhibition in experiment [4] is reported as less than 10%. In experiment [8], the % inhibition (as a rule, the change of the read-out against control, counted positive when it falls) at 10 µM was found to be 0%.
As for `O[C@@H]1[C@H](O)[C@@H]2C[C@@H]2[C@H]1n1cnc2c(NCc3cccc(Cl)c3)nc(C#Cc3ccc(F)c(F)c3)nc21` [Compound 6], the hA1AR % inhibition in [1] is reported as 29%±1%. Moreover, the inhibition at 10 µM in experiment [2] (single concentration 10 µM) worked out at 6%; in experiment [3] (single concentration 10 µM) it was 3%; in experiment [5] (single concentration 10 µM), 0%; in experiment [6] (single concentration 10 µM) it was 3%; in [9] (single concentration 10 µM), 0%; in [7] (single concentration 10 µM), 0%.
As to `O[C@@H]1[C@H](O)[C@@H]2C[C@@H]2[C@H]1n1cnc2c(NCc3cccc(Cl)c3)ncnc21` [Compound 7], the inhibition at 10 µM in experiment [2] (single concentration 10 µM) was 7%; in [3] (single concentration 10 µM), 2%; in [5] (single concentration 10 µM), 1%; in experiment [6] (single concentration 10 µM) it was 15%; in experiment [7] (single concentration 10 µM), 53%. Besides, the “% inhibition at 10 µM” value in experiment [8] stood at 0%.
In the case of `CNC(=O)[C@@]12C[C@@H]1[C@@H](n1cnc3c(NCc4cccc(Cl)c4)nc(C#Cc4ccc(F)c(F)c4)nc31)[C@H](O)[C@@H]2O` [Compound 1], the hA1AR % inhibition in [1] is listed as less than 10%. For the same compound, the inhibition at 10 µM in [2] (single concentration 10 µM) was 5%; in experiment [3] it was 13%; in [5], 11%; in [6], 2%; in experiment [9], 34%; in experiment [7], 0%. In addition, in experiment [4], the hA2AAR % inhibition is reported as 41%±10%. Also, in [8], the “% inhibition at 10 µM” value turned out to be 0%.
`CNC(=O)[C@@]12C[C@@H]1[C@@H](n1cnc3c(NCc4cccc(Cl)c4)nc(C#Cc4ccccc4Cl)nc31)[C@H](O)[C@@H]2O` [Compound 3]: the hA1AR % inhibition in experiment [1] is given as 19%±2%. The inhibition at 10 µM in experiment [2] (single concentration 10 µM) is 26%; in [3] (single concentration 10 µM), 27%; in experiment [5] (single concentration 10 µM) it was 23%; in experiment [6] (single concentration 10 µM), 9%; in experiment [7] (single concentration 10 µM), 0%. Moreover, the hA2AAR % inhibition in [4] is 52%±12%. In addition, the “% inhibition at 10 µM” value in [8] was 0%.
Turning to `Clc1cccc(CNc2nc(Cl)nc3[nH]cnc23)c1` [Compound 9], the hA2AAR % inhibition in experiment [10] was 37%±1%. The inhibition constant Ki (as a rule, the dissociation constant of the complex between target and ligand, obtained from inhibition or displacement) in experiment [11] stood at 165 nM. Further, the inhibition at 10 µM in experiment [2], in [3] (single concentration 10 µM), in experiment [5] (single concentration 10 µM), in experiment [6] (single concentration 10 µM) and in [7] (single concentration 10 µM) was 0% each time. Moreover, the “% inhibition as antagonist at 5HT2C” value in experiment [12] was 65%. For the same compound, the IC50 (as a rule, the concentration that inhibits the measured activity by half) in experiment [13] turned out to be 2900 nM; in [15] (setting [19]), 890 nM. The hA1AR % inhibition in experiment [14] was 45%±3%. Besides, the “% inhibition at 10 µM” value in [8] is recorded as 8%. Besides, the “% inhibition as antagonist at 5HT2B” value in [15] came out at 26%.
For `CNC(=O)[C@@]12C[C@@H]1[C@@H](n1cnc3c(NCc4cccc(Cl)c4)nc(Cl)nc31)[C@H](O)[C@@H]2O` [Compound 4], the inhibition at 10 µM in experiment [2] (single concentration 10 µM) is 34%; in experiment [3] (single concentration 10 µM) it was 11%; in experiment [5] (single concentration 10 µM), 1%; in experiment [6] (single concentration 10 µM) it was 1%; in experiment [7] (single concentration 10 µM) it was 2%. Moreover, the “% inhibition as antagonist at 5HT2C” value in experiment [12] is 94%. In experiment [8], the “% inhibition at 10 µM” value is on record as 0%. Besides, the “% inhibition as antagonist at 5HT2B” value in experiment [15] came to 60%. For the same compound, the IC50 came out at 887 nM in experiment [15] (read-out: IC50, inhibition of agonist activity at 5HT2B) and 3260 nM in [15] (setting [19]).
Consider `O[C@@H]1[C@H](O)[C@@H]2C[C@@H]2[C@H]1n1cnc2c(NC(C3CC3)C3CC3)nc(Cl)nc21` [Compound 10], for which the inhibition at 10 µM in [2] worked out at 0%; in experiment [3] (single concentration 10 µM), 0%; in experiment [5] (single concentration 10 µM) it was 0%; in experiment [6] (single concentration 10 µM), 0%; in [9] (single concentration 10 µM), 13%; in experiment [7] (single concentration 10 µM) it was 2%. The “inhibition of [3H]epibatidine binding” value in [16] was “no inhibition”. The IC50 was determined as 21200 nM in experiment [17] and 30300 nM in [18]. In addition, the “% inhibition at 10 µM” value in experiment [8] stood at 11%.
On to `CNC(=O)[C@@]12C[C@@H]1[C@@H](n1cnc3c(NCc4cccc(Cl)c4)nc(C#Cc4ccc(F)cc4)nc31)[C@H](O)[C@@H]2O` [Compound 2], for which the hA1AR % inhibition in experiment [1] is given as 20%±6%. In addition, the inhibition at 10 µM turned out to be 19% in experiment [2] (single concentration 10 µM); 19% in experiment [3] (single concentration 10 µM); 7% in experiment [5] (single concentration 10 µM); 9% in [6] (single concentration 10 µM); 0% in experiment [7] (single concentration 10 µM). For the same compound, in experiment [4], the hA2AAR % inhibition is 42%±2%. For the same compound, the “% inhibition at 10 µM” value in experiment [8] is on record as 0%.
The compound `Fc1ccc(C#Cc2nc(NCc3cccc(Cl)c3)c3nc[nH]c3n2)cc1F` [Compound 8] registered a hA2AAR % inhibition in experiment [10] of less than 10%. The Ki in experiment [11] is 120 nM. Besides, the inhibition at 10 µM was 9% in experiment [2] (single concentration 10 µM); 0% in [3] (single concentration 10 µM); 15% in experiment [5] (single concentration 10 µM); 2% in [6] (single concentration 10 µM); 0% in experiment [7] (single concentration 10 µM). The compound further came in with a hA1AR % inhibition in experiment [14] of less than 10%. Besides, the “% inhibition at 10 µM” value in [8] amounted to 0%.
